Test results as given in the supplement of paper PMC6723410.

Tested on: GUMC-403
Test: viability at highest tested concentration (max response) relative to DMSO (% of DMSO control); higher = less cytotoxic
Details: library / dose series: MIPE library, 11-point 1:3 dilution; top concentration 23 µM; 48 h
Outline: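 Viability at the highest tested concentration is given relative to vehicle control. For this, conditionally reprogrammed patient-derived GUMC-403 papilloma cells at 700/well in 1536-well plates were exposed to 23 nL of pinned compound for 48 h. Luminescence from CellTiter-Glo was read on a ViewLux and scaled between empty wells (0%) and vehicle wells (100%).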

First: COc1cc(O)c2c(c1)C(=O)c1cc(C)cc(O)c1C2=O
Second: COc1cccc(Nc2c(C(N)=O)cnc3c(C)cc([S+](=O)([O-])c4cccc(C(=O)N(C)C)c4)cc23)c1
The viability of the first is higher: 114 for the first, 97.1 for the second.

Same assay, conditions: library / dose series: MIPE library, 11-point 1:3 dilution; top concentration 46.1 µM; 48 h

First: COC(=O)Nc1nc2cc(C(=O)c3ccccc3)ccc2[nH]1
Second: O=C(/C=C/c1c(C(=O)[O-])[nH]c2cc(Cl)cc(Cl)c12)Nc1ccccc1
The viability of the first is lower: 88.2 for the first, 111 for the second.

Going from `CO[C@H]1C[C@@H]2CC[C@@H](C)[C@@](O)(O2)C(=O)C(=O)N2CCCC[C@H]2C(=O)O[C@H]([C@H](C)C[C@@H]2CC[C@@H](OP(C)(C)=O)[C@H](OC)C2)CC(=O)[C@H](C)/C=C(\C)[C@@H](O)[C@@H](OC)C(=O)[C@H](C)C[C@H](C)/C=C/C=C/C=C/1C` to `COc1cc2cc(c1Cl)N(C)C(=O)C[C@H](OC(=O)C(C)C)[C@]1(C)O[C@@H]1[C@H](C)[C@@H]1C[C@@](O)(NC(=O)O1)[C@H](OC)/C=C/C=C(\C)C2`, the viability rises from 104 to 122.

Going from `CC(C)OC(=O)CCC/C=C\C[C@@H]1[C@@H](/C=C/[C@@H](O)COc2cccc(C(F)(F)F)c2)[C@H](O)C[C@@H]1O` to `Cc1c(Cn2c(C)nc3c(C(=O)O)cc(N4CCOCC4)cc32)cccc1C(F)(F)F`, the viability falls from 118 to 76.9.

First: C[C@H]1[C@@H](C(=O)C[C@H]2O[C@@H]3O[C@]4(C)CC[C@H]5[C@H](C)CC[C@@H]([C@H]2C)[C@@]35OO4)O[C@@H]2O[C@]3(C)CC[C@H]4[C@H](C)CC[C@@H]1[C@@]24OO3
Second: C/C(=C\c1csc(C)n1)[C@@H]1C[C@@H]2O[C@@H]2CCC[C@H](C)[C@H](O)[C@@H](C)C(=O)C(C)(C)[C@@H](O)CC(=O)O1
The viability of the first is higher: 121 for the first, 114 for the second.

First: Clc1ccccc1C(c1ccccc1)(c1ccccc1)n1cccn1
Second: Clc1cccc(-n2nnnc2NCc2ccccc2Oc2ccccn2)c1Cl
The viability of the first is lower: 105 for the first, 116 for the second.

Going from `O=C(O)c1ccc(O)c2ncc(N3CCOCC3)cc12` to `CCOc1cc2c(c(F)c1OCC)C(=N)N(CC(=O)c1cc(N3CCOCC3)c(OC)c(C(C)(C)C)c1)C2`, the viability rises from 96 to 124.

Compared with `CCN(CC)CCOC1=CC=C(NC2=NC=C3\C=C(/C(=O)N(C)C3=N2)C4=C(Cl)C=CC=C4Cl)C=C1`, `FC1=CC=C(SC/2=N/N3\C=N/C(=O)/C(=C3/C=C2)C4=C(Cl)C=CC=C4Cl)C(=C1)F` is higher in viability: 75.4 for the first, 108 for the second.

Going from `CC(=O)NC(CS)C(=O)O` (configuration not stated) to `O=C(O)CSCC(=O)NC1CCSC1=O` (configuration not stated), the viability rises from 91.1 to 139.

Going from `NCCc1c[nH]cn1` to `CCc1nc(N)nc(N)c1-c1ccc(Cl)cc1`, the viability falls from 135 to 97.1.

Going from `Cn1ccc2cc3c(cc21)CCN3C(=O)Nc1cccnc1` to `CN1CCc2c(c3ccccc3n2Cc2ccc(C(=O)NO)cc2)C1`, the viability falls from 126 to 107.

Going from `CCOC(=O)N1CCN(/[N+]([O-])=N/Oc2cc(O/N=[N+](\[O-])N3CCN(C(=O)OCC)CC3)c([N+](=O)[O-])cc2[N+](=O)[O-])CC1` to `CCN1CCCC1CNC(=O)c1cc(S(=O)(=O)CC)c(N)cc1OC` (configuration not stated), the viability rises from 118 to 119.

First: Clc1ccccc1CN1CCc2sccc2C1
Second: COc1cccc([C@@H](C)NCCCc2ccccc2Cl)c1
The viability of the first is higher: 141 for the first, 105 for the second.

Compared with `COc1ccc(/C=C\c2cc(OC)c(OC)c(OC)c2)cc1NC(=O)[C@H](N)CO`, `COc1cc(OC)c(/C=C/[S+](=O)([O-])Cc2ccc(OC)c(NCC(=O)[O][Na])c2)c(OC)c1` is higher in viability: 85.1 for the first, 118 for the second.

Compared with `COC1CCC(CC1)N(C(=O)C2CCC(C)CC2)C3=C(SC(=C3)\C4=C\CCCC4)C(O)=O` (configuration not stated), `C[C@]12CC[C@@H]3c4ccc(O)cc4CC[C@H]3[C@@H]1[C@@H](O)[C@@H](O)[C@@H]2O` is lower in viability: 110 for the first, 94.5 for the second.

`CC1(C)CNc2cc(NC(=O)c3cccnc3NCc3ccncc3)ccc21` and `CNCC(O)C(O)C(O)C(O)CO.O=C(O)c1ccc(-c2cc3cccnc3c(-c3ccc4nonc4c3)n2)cc1` are the same in viability: 117 for the first, 117 for the second.

Compared with `N=C1S/C(=C\c2ccc(-c3ccc4c(c3)C(=O)NC4=O)o2)C(=O)N1c1ccc(Br)cc1`, `Nc1nccc(-c2ccc3noc(-c4ccc(Cl)cc4)c3c2)n1` is lower in viability: 142 for the first, 80.1 for the second.

Compared with `C[C@H](Cc1ccc(O)c(O)c1)[C@@H](C)Cc1ccc(O)c(O)c1`, `OC1=CC=C(C=C1)C/2=C/C3=C(OC2)C=C(O)C=C3` is lower in viability: 110 for the first, 89.4 for the second.

`c1ccc2[nH]c(-c3cscn3)nc2c1` and `ClC1=C[NH]N=C1C\2NC(=N\C3=C2C(=O)CCC3)/NC4=NC5=CC=CC=C5O4` (configuration not stated) are the same in viability: 124 for the first, 124 for the second.

Going from `O=C1\C=C/C[C@@H]2[C@H]3CCCN4CCC[C@@H](CN12)[C@@H]34` to `CC/1=C/C(=O)N(O)/C(=C1)C2CCCCC2`, the viability falls from 108 to 27.2.

Compared with `CN1CCN(CCOc2cc(OC3CCOCC3)c3c(Nc4c(Cl)ccc5c4OCO5)ncnc3c2)CC1`, `COc1ccc(OC)c(-c2nnc3ccc(-c4ccc(OC)c(O[C@@H]5CCOC5)c4)nn23)c1` is lower in viability: 75.9 for the first, 4.61 for the second.

First: COc1cc(F)c(C(C)C)cc1-c1ccc(C(F)(F)F)cc1CN1C(=O)O[C@H](c2cc(C(F)(F)F)cc(C(F)(F)F)c2)[C@@H]1C
Second: COc1cc(F)c(F)c(Nc2ccc(I)cc2F)c1N[S+](=O)([O-])C1(C[C@H](O)CO)CC1
The viability of the first is lower: 100 for the first, 101 for the second.

Compared with `CC(C)(O)C(=O)Nc1ccc([N+](=O)[O-])c(C(F)(F)F)c1`, `OC[C@H]1O[C@H](C[C@@H]1O)N2/C=C(C(=O)NC2=O)/C(F)(F)F` is lower in viability: 112 for the first, 103 for the second.

First: COC1(C[S+]([O-])c2ccccc2)CCN(CCc2c[nH]c3ccc(F)cc23)CC1 (configuration not stated)
Second: OC(CN1CCC(Cc2ccc(F)cc2)CC1)c1ccc(Cl)cc1 (configuration not stated)
The viability of the first is lower: 101 for the first, 103 for the second.

Going from `CC(=O)O[C@@]12CO[C@@H]1C[C@H](O)[C@]3(C)[C@@H]2[C@H](OC(=O)C4=CC=CC=C4)[C@]5(O)C[C@H](O)/C(=C(/[C@@H](O)C3=O)C5(C)C)C` to `CCC(=O)O[C@@]1([C@H](C)C[C@H]2[C@@H]3C[C@H](F)\C4=C\C(=O)\C=C/[C@]4(C)[C@@]3(F)[C@@H](O)C[C@]12C)C(=O)SCF`, the viability rises from 117 to 162.

Compared with `C=C[C@H]1CN2CCC1C[C@@H]2C(O)c1ccnc2ccc(OC)cc12` (some centres not stated), `COc1ccc2c(OCc3nnc4ccc(-c5ccccc5)nn34)ccnc2c1` is higher in viability: 101 for the first, 126 for the second.

First: NC(=O)c1cccc(-c2cccc(OC(=O)NC3CCCCC3)c2)c1
Second: CCN(CC)CC#CCOC(=O)C(O)(c1ccccc1)C1CCCCC1 (configuration not stated)
The viability of the first is lower: 104 for the first, 127 for the second.

Compared with `C=C1C(=O)OC2/C=C(/C)CC/C=C(/C)CCC12` (configuration not stated), `COc1cc2c(cc1OC)C1CC(=O)C(CC(C)C)CN1CC2` (configuration not stated) is lower in viability: 113 for the first, 110 for the second.

First: Cn1cc(/C=C/C(=O)c2cccc(F)c2)cc1/C=C/C(=O)NO
Second: O=C(CCCCCCC(=O)Nc1ccccc1)NO
The viability of the first is higher: 103 for the first, 99 for the second.

Going from `CN1\N=N/C2=C(N=C[N]2C1=O)C(N)=O` to `CN1C(=O)/C(=C(NC2=CC=C(I)C=C2F)\C3=C1\N=C/N(C[C@@H](O)CO)C3=O)F`, the viability falls from 121 to 28.9.

Compared with `CC(=O)O[C@H]1C[C@@H]2CC[C@@H]3[C@H](CC[C@@]4(C)[C@H]3C[C@H]([N+]3(C)CCCCC3)[C@@H]4OC(C)=O)[C@@]2(C)C[C@@H]1[N+]1(C)CCCCC1`, `CC(C)(O)/C=C\C(=O)[C@](C)(O)[C@H]1[C@H](O)C[C@]2(C)[C@@H]3CC=C4[C@@H](C=C(O)C(=O)C4(C)C)[C@]3(C)C(=O)C[C@@]12C` is lower in viability: 122 for the first, 83.7 for the second.

Compared with `ClC1=CC(=CC=C1)N2CCN(CCCN3\N=C4\C=C/C=C\N4C3=O)CC2`, `CN(C)CC[C@H](CSc1ccccc1)Nc1ccc([S+](=O)([O-])NC(=O)c2ccc(N3CCN(Cc4ccccc4-c4ccc(Cl)cc4)CC3)cc2)cc1[N+](=O)[O-]` is higher in viability: 103 for the first, 114 for the second.

Going from `C[N+](C)(C)CC(=O)O.[Cl-]` to `CC/C=C\C[C@H]1C(=O)CC[C@@H]1CC(=O)OC`, the viability rises from 113 to 120.

Going from `COc1cc([C@@H]2c3cc4c(cc3[C@@H](O[C@@H]3O[C@@H]5CO[C@@H](c6cccs6)O[C@H]5[C@H](O)[C@H]3O)[C@H]3COC(=O)[C@H]23)OCO4)cc(OC)c1O` to `COc1ccc(-n2c(C)c([N+](=O)[O-])c3ccc(O)cc32)cc1`, the viability rises from 56.7 to 87.

Compared with `N#C/C(=C(/N)Sc1ccc(N)cc1)c1ccccc1C(F)(F)F`, `CN(C)CCN(Cc1ccc(Cl)cc1)c1ccccn1.Cl` is higher in viability: 87.9 for the first, 97.6 for the second.

Going from `Cl.Nc1ccn([C@@H]2O[C@H](CO)[C@@H](O)C2(F)F)c(=O)n1` to `Nc1nc(Cl)nc2c1ncn2[C@H]1C[C@H](O)[C@@H](CO)O1`, the viability rises from 107 to 120.

Compared with `C[N]1C=C(C=N1)C2=C3\C=N/NC(=O)C4=C3C(=CC(=C4)NC(=O)[C@H](N)C5CCCCC5)[NH]2`, `Nc1cccc([S+](=O)([O-])N2CCCN([S+](=O)([O-])c3ccc4c(c3)OCCO4)CC2)c1` is lower in viability: 100 for the first, 87 for the second.

First: COc1ccc(C(CN(C)C)C2(O)CCCCC2)cc1 (configuration not stated)
Second: CCOC(=O)c1ccc(OC(=O)CCCCCNC(=N)N)cc1
The viability of the first is lower: 100 for the first, 138 for the second.

Same assay, conditions: library / dose series: MIPE library, 11-point 1:3 dilution; top concentration 92.2 µM; 48 h

For `C[C@@H]1CC[C@@]2(CC[C@]3(C)\C(=C/C[C@@H]4[C@@]5(C)CC[C@H](O)C(C)(C)[C@@H]5CC[C@@]34C)[C@@H]2[C@H]1C)C(O)=O`, the viability was 95.2.
